One may read the IC50 as the concentration needed to halve the response being measured.

SMILES strings stand for the structures.

In ChEMBL document CHEMBL1135301, “Imidazole-based ligands of the Src SH2 protein” (Bioorg Med Chem Lett, 2002) one finds IC50 data, which are given here for three molecules.

The target in the assay is Proto-oncogene tyrosine-protein kinase Src (Homo sapiens, UniProt P12931). Put plainly: Binding affinity for p60 c-Src SH2 domain by scintillation proximity assay (SPA). (In a scintillation proximity assay essentially only radioactivity close to the scintillant gives light.)
Chain of Proto-oncogene tyrosine-protein kinase Src (P12931 2-536 limits assumed): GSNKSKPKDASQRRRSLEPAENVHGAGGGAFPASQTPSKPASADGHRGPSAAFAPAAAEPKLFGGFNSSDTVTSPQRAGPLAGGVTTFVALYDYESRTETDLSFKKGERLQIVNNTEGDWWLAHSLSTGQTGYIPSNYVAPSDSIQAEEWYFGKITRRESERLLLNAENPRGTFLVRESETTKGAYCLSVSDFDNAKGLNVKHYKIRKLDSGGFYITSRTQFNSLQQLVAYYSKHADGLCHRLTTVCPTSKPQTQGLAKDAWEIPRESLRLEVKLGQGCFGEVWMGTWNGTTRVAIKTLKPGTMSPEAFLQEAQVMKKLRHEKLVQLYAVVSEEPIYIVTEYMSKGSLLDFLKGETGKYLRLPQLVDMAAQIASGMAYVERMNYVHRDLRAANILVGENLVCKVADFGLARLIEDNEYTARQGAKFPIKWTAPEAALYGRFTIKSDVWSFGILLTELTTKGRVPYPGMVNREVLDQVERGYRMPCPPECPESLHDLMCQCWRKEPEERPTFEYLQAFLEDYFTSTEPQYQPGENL

On to `CC(=O)N[C@@H](Cc1ccc(C(F)(F)P(=O)(O)O)cc1)C(=O)NC(C)c1nc(SCC2CCCCC2)c(C(N)=O)n1C` (stereo partly drawn), for which the IC50 came out at 5.3 µM.

`CC(=O)N[C@@H](Cc1ccc(OP(=O)(O)O)cc1)C(=O)NC(C)c1nc(SCC2CCCCC2)c(C(N)=O)n1C` (stereo partly drawn) returned an IC50 of 8.6 µM.

Regarding `CCOC(=O)c1c(SCC2CCCCC2)nc(C(C)NC(=O)[C@H](Cc2ccc(OP(=O)(O)O)cc2)NC(C)=O)n1C` (stereo partly drawn), the IC50 worked out at 6.9 µM.
